Data from patent US8030282B2, “Motilide polymorphs” (priority 2006, dated 2011).
Converted amounts (≈) assume the structure as drawn.

How the values were obtained:
[1] = Gravimetric vapor sorption (GVS) moisture sorption isotherm; type: physicochemical; conditions: for weight increase / mass uptake between 0 and 90% RH / mass gain/loss upon multiple sorption and desorption cycles: GVS, 25° C.; for weight increase / mass uptake between 0 and 90% RH: 0 to 90% RH; for XRPD re-analysis under ambient conditions after GVS: after GVS weight uptake/loss
Protocol: GVS data was also collected by Pharmorphix, Ltd. All samples were run on a Hiden IGASorp moisture sorption analyzer running CFRSorp software. Sample sizes were typically 10 mg. A moisture adsorption-desorption isotherm was performed as outlined below, with two scans giving one complete cycle. All samples were loaded and unloaded at typical ambient (room) humidity and temperature (40% RH, 25° C.). All samples were analyzed by XRPD after GVS analysis. The standard isotherm was performed at 25° C. at 10% RH intervals over a 0 to 90% RH range. [table]

[2] = Form stability under aqueous conditions / during solubility analysis; type: physicochemical
[3] = Aqueous solubility of polymorphs of Compound Ia; type: physicochemical
[4] = Storage stability at 40° C. and 75% RH (XRPD); type: physicochemical; conditions: for change on storage at 40° C. and 75% RH: one week
[5] = Retention of crystallinity on heating or vacuum drying (XRPD); type: physicochemical
Description: XRPD patterns were collected on a Bruker AXS C2 GADDS diffractometer using Cu Kα radiation (40 kV, 40 mA), automated XYZ stage, laser video microscope for auto-sample positioning and a HiStar 2-dimensional area detector. X-ray optics consisted of a single Göbel multilayer mirror coupled with a pinhole collimator of 0.3 mm.
The beam divergence, i.e. the effective size of the X-ray beam on the sample, was approximately 4 mm. A θ-θ continuous scan mode was employed with a sample-detector distance of 20 cm which gave an effective 2θ range of 3.2° to 29.7°. Typically the sample would be exposed to the X-ray beam for 120 seconds.

motilin receptor = motilin receptor (Homo sapiens, UniProt O43193); conditions: cited from earlier work
Sequence of motilin receptor (O43193 whole entry, species assumed): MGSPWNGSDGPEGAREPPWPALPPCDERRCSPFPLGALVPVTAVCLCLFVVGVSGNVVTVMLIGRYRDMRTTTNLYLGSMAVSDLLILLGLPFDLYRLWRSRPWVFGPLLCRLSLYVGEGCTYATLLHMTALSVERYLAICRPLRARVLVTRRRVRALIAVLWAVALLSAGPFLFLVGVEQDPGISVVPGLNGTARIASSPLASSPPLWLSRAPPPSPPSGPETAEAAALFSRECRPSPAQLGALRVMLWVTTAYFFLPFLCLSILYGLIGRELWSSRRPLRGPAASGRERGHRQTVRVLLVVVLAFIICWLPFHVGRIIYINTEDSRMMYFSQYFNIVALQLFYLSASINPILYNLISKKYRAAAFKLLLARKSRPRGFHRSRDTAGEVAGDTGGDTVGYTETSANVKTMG

| weight increase / mass uptake between 0 and 90% RH [1] [%] | mass gain/loss upon multiple sorption and desorption cycles [1] | XRPD re-analysis under ambient conditions after GVS [1] | Compound | polymorph change under aqueous conditions / during solubility analysis [2] | also measured |
| --- | --- | --- | --- | --- | --- |
| 8.5 | changed drastically |  | CC[C@H]1OC(=O)[C@H](C)[C@@H](O[C@H]2C[C@@](C)(OC)[C@@H](O)[C@H](C)O2)[C@H](C)[C@@H](O[C@@H]2O[C@H](C)C[C@H](N(C)C(C)C)[C@H]2O)[C@](C)(O)C[C@@H](C)[C@H](OCC(=O)NC)[C@H](C)[C@@H](O)[C@]1(C)O [Polymorph I] | converted to a second polymorph, referred to as Polymorph II |  |
| 3.5 | very uniform | did not lead to a change in XRPD pattern | CC[C@H]1OC(=O)[C@H](C)[C@@H](O[C@H]2C[C@@](C)(OC)[C@@H](O)[C@H](C)O2)[C@H](C)[C@@H](O[C@@H]2O[C@H](C)C[C@H](N(C)C(C)C)[C@H]2O)[C@](C)(O)C[C@@H](C)[C@H](OCC(=O)NC)[C@H](C)[C@@H](O)[C@]1(C)O [Polymorph IV] | Neither storage at 40 °C at 75% R^H for 10 weeks nor handling during solubility analysis produced any significant changes | solubility ([3]; water): 770 µg/mL (≈ 922 µM); change on storage at 40° C. at 75% RH ([4]; 10 weeks): Neither storage at 40 °C at 75% R^H for 10 weeks nor handling during solubility analysis produced any significant changes; XRPD pattern on heating ([5]; heating up to the melt): no change in XRPD pattern |
|  | changed drastically |  | CC[C@H]1OC(=O)[C@H](C)[C@@H](O[C@H]2C[C@@](C)(OC)[C@@H](O)[C@H](C)O2)[C@H](C)[C@@H](O[C@@H]2O[C@H](C)C[C@H](N(C)C(C)C)[C@H]2O)[C@](C)(O)C[C@@H](C)[C@H](OCC(=O)NC)[C@H](C)[C@@H](O)[C@]1(C)O [Polymorph VI] |  | change on storage at 40° C. at 75% RH ([4]; duration not stated): converted to Polymorph IV |
|  |  |  | CC[C@H]1OC(=O)[C@H](C)[C@@H](O[C@H]2C[C@@](C)(OC)[C@@H](O)[C@H](C)O2)[C@H](C)[C@@H](O[C@@H]2O[C@H](C)C[C@H](N(C)C)[C@H]2O)[C@](C)(O)C[C@@H](C)C(=O)[C@H](C)[C@@H](O)[C@]1(C)O [erythromycin A (1), Erythromycin A] |  | motilin agonist activity (motilin receptor): motilin agonist activity |
|  | changed drastically | loss of crystallinity | CC[C@H]1OC(=O)[C@H](C)[C@@H](O[C@H]2C[C@@](C)(OC)[C@@H](O)[C@H](C)O2)[C@H](C)[C@@H](O[C@@H]2O[C@H](C)C[C@H](N(C)C(C)C)[C@H]2O)[C@](C)(O)C[C@@H](C)[C@H](OCC(=O)NC)[C@H](C)[C@@H](O)[C@]1(C)O [Polymorph II] |  | weight loss when kept at between 5 and 0% RH ([1]; between 5 and 0% RH): 4%; crystallinity during vacuum drying ([5]; vacuum drying at 30° C. for 72 h): loses crystallinity |
| 3 | changed drastically | loss of crystallinity | CC[C@H]1OC(=O)[C@H](C)[C@@H](O[C@H]2C[C@@](C)(OC)[C@@H](O)[C@H](C)O2)[C@H](C)[C@@H](O[C@@H]2O[C@H](C)C[C@H](N(C)C(C)C)[C@H]2O)[C@](C)(O)C[C@@H](C)[C@H](OCC(=O)NC)[C@H](C)[C@@H](O)[C@]1(C)O [Polymorph VII] | converted to a mixture of Polymorphs II and IV | aqueous solubility [3]: 750 µg/mL (≈ 898 µM); weight change by GVS analysis [1]: constant weight loss; change on storage at 40° C. and 75% RH [4]: lost crystallinity |
|  |  |  | CC[C@H]1OC(=O)[C@H](C)[C@@H](O[C@H]2C[C@@](C)(OC)[C@@H](O)[C@H](C)O2)[C@H](C)[C@@H](O[C@@H]2O[C@H](C)C[C@H](N(C)C(C)C)[C@H]2O)[C@](C)(O)C[C@@H](C)[C@H](OCC(=O)NC)[C@H](C)[C@@H](O)[C@]1(C)O [Polymorph V] | converted to Polymorph II | aqueous solubility [3]: 720 µg/mL (≈ 862 µM); change on storage at 40° C. and 75% RH [4]: decreased in crystallinity |
